Measurements from US5888762A, “Neurotropic growth factors comprising a homeobox peptide” (Centre National De La Recherche Scientifique (CNRS), priority 1994, dated 1999).
Ends that are not written are not given here.

Tests used:
[1] = test system: living neurons; assay: Penetration of biotinylated pAntp fragments encompassing helix 3 into living neurons; format: cell-based; conditions: biotinylated peptides 10 μg/ml, 37° C., 3 hours, fluorinated streptavidin
Method: These peptides (10 μg/ml) were separately incubated with living neurons, at 37° C. for 3 hours.
After washing and fixation of the cells, the localisation of the peptides is checked by use of fluorinated streptavidin.

[2] = test system: neurons removed from rat embryos (mesencephalon, spinal cord, cortex); assay: Biological effect of pAntp on neuritic growth of cultured neurons; format: cell-based; conditions: rat embryo neurons in CDM medium, peptide 9 µg/ml (equivalent to 1.3M), 24 h
Method: The neurons removed from rat embryos (E14 to E 16) in various regions of the brain (mesencephalon, spinal cord, cortex), are inoculated into a defined medium (CHAMAK and PROCHIANTZ, DEVELOPMENT, 106, 483, 1989) which permits the survival of only the neuronal cells (CDM medium).
The peptide is added to the nerve cells at a concentration of […] (equivalent to 1.3M).

[3] = test system: dissociated rat embryonic neurons; assay: Distribution of 35S-methionine labelled peptides in cell compartments and medium; format: cell-based; conditions: for internalization / translocation through the membrane: 35S-labelled peptides, 2 hours; for MEDIUM (peptide distribution, radioactivity in fraction) / NUCLEAR (peptide distribution, radioactivity in fraction) / POST-NUCLEAR (peptide distribution, radioactivity in fraction): 2 hours incubation, mean ± standard deviation of 6 experiments; for share of the peptides that reach the nuclei: within 2 hours
Method: Peptides pAntp50A, pAntp48S, and pAntp40P2, labelled in E. coli with ^35 S-methionine were purified and added to dissociated rat embryonic neurons. After incubation for 2 hours, the medium was recovered by centrifugation and, after lysis of the cells with NP40, nuclear and post-nuclear fractions were isolated.
Identity of the radioactive material present in the nuclei was analysed by gel electrophoresis.
After lysis of the neurons, peptide distribution in the different cell compartments and in the medium was quantified by determination of radioactivity in each fraction.

[4] = test system: dissociated embryonic cells; assay: Confocal microscopy of fluoresceinated peptides: internalization and nuclear accumulation; format: cell-based, rat; conditions: 2 hours incubation, cells cultured 1 day before fixation
Description: The cells were then washed, plated and cultured for 1 day before fixation.

Substance	intracellular localization of the fluorescent label (penetration) [1]	neuritic growth [2]	internalization / translocation through the membrane [3]	MEDIUM (peptide distribution, radioactivity in fraction) [3]	NUCLEAR (peptide distribution, radioactivity in fraction) [3]	POST-NUCLEAR (peptide distribution, radioactivity in fraction) [3]	share of the peptides that reach the nuclei [3]	uptake and nuclear accumulation by confocal microscopy [4]
pAntp 41-60: synthetic biotinylated peptide, amino-acids 41-60 of pAntp (SEQ ID NO: 7) (TERQIKIWFQNRRMKWKKEN; also: biotinylated, site not given here)	intracellular localization of the fluorescent label							
pAntp40P2: mutant pAntp, Leu^40 and Thr^41 substituted by two proline residues (SEQ ID NO: 12)		none of the mutants pAntp40P2, pAntp50A, and pAntp48S was able to promote neurite growth	internalized rapidly	87.5 ± 2.5%	11.5 ± 2%	1.0 ± 0.5%	10 to 20%	taken up by all cells in the population and significant concentrations of the peptides accumulated in the nuclei
pAntp 41-55: synthetic biotinylated peptide, amino-acids 41-55 of pAntp (SEQ ID NO: 9)	not							
pAntp50A: mutant recombinant pAntp, Glu^50 →Ala^50 substitution in helix 3 plus His^36 →Tyr cloning artifact (SEQ ID NO: 10)		none of the mutants pAntp40P2, pAntp50A, and pAntp48S was able to promote neurite growth	internalized rapidly	75.0 ± 6%	19.0 ± 5%	6.0 ± 1%	10 to 20%	taken up by all cells in the population and significant concentrations of the peptides accumulated in the nuclei
pAntp48S: mutant pAntp, Trp^48, Phe^49 and Glu^50 in helix 3 replaced by a single serine residue (SEQ ID NO. 11)		none of the mutants pAntp40P2, pAntp50A, and pAntp48S was able to promote neurite growth	unable to translocate through the membrane	96.5 ± 1%	2.5 ± 0.5%	1.0 ± 0.5%		
pAntp 43-58: synthetic biotinylated peptide, amino-acids 43-58 of pAntp, helix 3 (SEQ ID NO: 8) (RQIKIWFQNRRMKWKK; also: biotinylated, site not given here)	intracellular localization of the fluorescent label							
